Laboratory results published in patent US6809065B2, “Herbicide containing substituted pyrazole derivative as active ingredient” (SDS Biotech K.K., priority 2001, dated 2004).

What was measured:
Echinochloa spp. = assay: Paddy field treatment (Test Example 3); type: in vivo, Echinochloa crusgalli; settings: paddy pot, submerged 4 cm, dropped on water surface 10th day after transplantation, 1 kg active ingredient per hectare, evaluated 21st day
Procedure, shortened: (§1)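 Index scores for herbicidal effect were read 21 days after treatment, higher meaning stronger effect. Treatment was a water-diluted wettable powder dropped onto flooded paddy soil at 1 kg active ingredient per hectare, 10 days after rice transplantation.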

Chenopodium album [1] = assay: Upland field foliage treatment (Test Example 1); type: in vivo; settings: foliage treatment 14th day after sowing, wettable powder, 1 kg active ingredient per hectare, evaluated 21st day after application
Procedure, shortened: (§2)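 Foliage application took place two weeks after sowing, at an active-ingredient rate of 1 kg/ha from a water-diluted wettable powder. Rating followed on the 21st day after application, using an index scale on which crop values rise as injury increases.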

Digitaria adscendens [2] = assay: Upland field foliage treatment (Test Example 1); type: in vivo; settings: foliage treatment 14th day after sowing, wettable powder, 1 kg active ingredient per hectare, evaluated 21st day after application
Procedure, shortened: as §2

Stellaria media [3] = assay: Upland field foliage treatment (Test Example 1); type: in vivo; settings: foliage treatment 14th day after sowing, wettable powder, 1 kg active ingredient per hectare, evaluated 21st day after application
Procedure, shortened: as §2

Setaria viridis [4] = assay: Upland field foliage treatment (Test Example 1); type: in vivo; settings: foliage treatment 14th day after sowing, wettable powder, 1 kg active ingredient per hectare, evaluated 21st day after application
Procedure, shortened: as §2

Monochoria vaginalis = assay: Paddy field treatment (Test Example 3); type: in vivo; settings: paddy pot, submerged 4 cm, dropped on water surface 10th day after transplantation, 1 kg active ingredient per hectare, evaluated 21st day
Procedure, shortened: as §1

Ammannia multiflora = assay: Paddy field treatment (Test Example 3); type: in vivo; settings: paddy pot, submerged 4 cm, dropped on water surface 10th day after transplantation, 1 kg active ingredient per hectare, evaluated 21st day
Procedure, shortened: as §1

Scirpus juncoides = assay: Paddy field treatment (Test Example 3); type: in vivo; settings: paddy pot, submerged 4 cm, dropped on water surface 10th day after transplantation, 1 kg active ingredient per hectare, evaluated 21st day
Procedure, shortened: as §1

[5] = system: rice (Oryza sative, variety: Koshihikari); assay: Paddy field treatment (Test Example 3), crop; type: in vivo, Oryza sativa; settings: transplanted rice two-leaf period, water surface treatment 10th day after transplantation, 1 kg active ingredient per hectare, evaluated 21st day, lower index = higher safety
Procedure, shortened: as §1

soybean (Glycine max) [6] = assay: Upland field foliage treatment (Test Example 1), crop; type: in vivo; settings: foliage treatment 14th day after sowing, 1 kg active ingredient per hectare, evaluated 21st day, lower index = higher safety
Procedure, shortened: as §2

[7] = system: wheat (Triticum aestivum); assay: as above; type: in vivo; settings: foliage treatment 14th day after sowing, 1 kg active ingredient per hectare, evaluated 21st day, lower index = higher safety
Procedure, shortened: as §2

Chenopodium album [8] = assay: Upland soil treatment (Test Example 2); type: in vivo; settings: soil surface treatment next day after sowing, wettable powder, 1 kg active ingredient per hectare, evaluated 21st day after application
Procedure, shortened: (§3)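 Applies a soil-surface, pre-emergence spray of 1 kg active ingredient/ha (wettable powder in water) one day after sowing; weed control and crop injury are rated on an index scale three weeks later.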

Digitaria adscendens [9] = assay: Upland soil treatment (Test Example 2); type: in vivo; settings: soil surface treatment next day after sowing, wettable powder, 1 kg active ingredient per hectare, evaluated 21st day after application
Procedure, shortened: as §3

Stellaria media [10] = assay: Upland soil treatment (Test Example 2); type: in vivo; settings: soil surface treatment next day after sowing, wettable powder, 1 kg active ingredient per hectare, evaluated 21st day after application
Procedure, shortened: as §3

Setaria viridis [11] = assay: Upland soil treatment (Test Example 2); type: in vivo; settings: soil surface treatment next day after sowing, wettable powder, 1 kg active ingredient per hectare, evaluated 21st day after application
Procedure, shortened: as §3

soybean (Glycine max) [12] = assay: Upland soil treatment (Test Example 2), crop; type: in vivo; settings: soil surface treatment next day after sowing, 1 kg active ingredient per hectare, evaluated 21st day, lower index = higher safety
Procedure, shortened: as §3

[13] = system: wheat (Triticum aestivum); assay: Upland soil treatment (Test Example 2), crop; type: in vivo; settings: soil surface treatment next day after sowing, 1 kg active ingredient per hectare, evaluated 21st day, lower index = higher safety
Procedure, shortened: as §3

Compound	Herbicidal activity Echinochloa spp. (Echinochloa spp.)	Herbicidal activity Chenopodium album (Chenopodium album [1])	Herbicidal activity Digitaria adscendens (Digitaria adscendens [2])	Herbicidal activity Stellaria media (Stellaria media [3])	Herbicidal activity Setaria viridis (Setaria viridis [4])	Herbicidal activity Monochoria vaginalis (Monochoria vaginalis)	Herbicidal activity Ammannia multiflora (Ammannia multiflora)	Herbicidal activity Scirpus juncoides (Scirpus juncoides)	Herbicidal activity Oryza sativa [5]	Herbicidal activity Glycine max (soybean (Glycine max) [6])	Herbicidal activity Triticum aestivum [7]	Herbicidal activity Chenopodium album (Chenopodium album [8])	Herbicidal activity Digitaria adscendens (Digitaria adscendens [9])	Herbicidal activity Stellaria media (Stellaria media [10])	Herbicidal activity Setaria viridis (Setaria viridis [11])	Herbicidal activity Glycine max (soybean (Glycine max) [12])	Herbicidal activity Triticum aestivum [13]
COC=C(Cn1nc(-c2cc(Cl)cc(Cl)c2)c(Cl)c1C)C(=O)OC [Compound 25]	3 (herbicidal effect of not less than 50% by weight and less than 70% by weight)	4 (herbicidal effect of not less than 70% by weight and less than 90% by weight)	4 (herbicidal effect of not less than 70% by weight and less than 90% by weight)	4 (herbicidal effect of not less than 70% by weight and less than 90% by weight)	4 (herbicidal effect of not less than 70% by weight and less than 90% by weight)	3 (herbicidal effect of not less than 50% by weight and less than 70% by weight)	3 (herbicidal effect of not less than 50% by weight and less than 70% by weight)	3 (herbicidal effect of not less than 50% by weight and less than 70% by weight)	0 (herbicidal effect of not less than 0% by weight and less than 10% by weight)	0 (herbicidal effect of not less than 0% by weight and less than 10% by weight)	0 (herbicidal effect of not less than 0% by weight and less than 10% by weight)	4 (herbicidal effect of not less than 70% by weight and less than 90% by weight)	4 (herbicidal effect of not less than 70% by weight and less than 90% by weight)	4 (herbicidal effect of not less than 70% by weight and less than 90% by weight)	4 (herbicidal effect of not less than 70% by weight and less than 90% by weight)	0 (herbicidal effect of not less than 0% by weight and less than 10% by weight)	0 (herbicidal effect of not less than 0% by weight and less than 10% by weight)
COC=C(Cn1nc(-c2ccccc2)c(C)c1Cl)C(=O)OC [Compound 45]	4 (herbicidal effect of not less than 70% by weight and less than 90% by weight)	5 (herbicidal effect of not less than 90% by weight)	4 (herbicidal effect of not less than 70% by weight and less than 90% by weight)	5 (herbicidal effect of not less than 90% by weight)	4 (herbicidal effect of not less than 70% by weight and less than 90% by weight)	5 (herbicidal effect of not less than 90% by weight)	4 (herbicidal effect of not less than 70% by weight and less than 90% by weight)	4 (herbicidal effect of not less than 70% by weight and less than 90% by weight)	0 (herbicidal effect of not less than 0% by weight and less than 10% by weight)	1 (herbicidal effect of not less than 10% by weight and less than 30% by weight)	0 (herbicidal effect of not less than 0% by weight and less than 10% by weight)	4 (herbicidal effect of not less than 70% by weight and less than 90% by weight)	4 (herbicidal effect of not less than 70% by weight and less than 90% by weight)	4 (herbicidal effect of not less than 70% by weight and less than 90% by weight)	4 (herbicidal effect of not less than 70% by weight and less than 90% by weight)	0 (herbicidal effect of not less than 0% by weight and less than 10% by weight)	0 (herbicidal effect of not less than 0% by weight and less than 10% by weight)
COC=C(Cn1nc(-c2ccc(Cl)cc2Cl)c(Br)c1C)C(=O)OC [Compound 30]	4 (herbicidal effect of not less than 70% by weight and less than 90% by weight)	5 (herbicidal effect of not less than 90% by weight)	5 (herbicidal effect of not less than 90% by weight)	5 (herbicidal effect of not less than 90% by weight)	4 (herbicidal effect of not less than 70% by weight and less than 90% by weight)	5 (herbicidal effect of not less than 90% by weight)	5 (herbicidal effect of not less than 90% by weight)	4 (herbicidal effect of not less than 70% by weight and less than 90% by weight)	0 (herbicidal effect of not less than 0% by weight and less than 10% by weight)	1 (herbicidal effect of not less than 10% by weight and less than 30% by weight)	0 (herbicidal effect of not less than 0% by weight and less than 10% by weight)	4 (herbicidal effect of not less than 70% by weight and less than 90% by weight)	5 (herbicidal effect of not less than 90% by weight)	4 (herbicidal effect of not less than 70% by weight and less than 90% by weight)	5 (herbicidal effect of not less than 90% by weight)	0 (herbicidal effect of not less than 0% by weight and less than 10% by weight)	0 (herbicidal effect of not less than 0% by weight and less than 10% by weight)
COC=C(Cn1nc(-c2cc(Cl)cc(Cl)c2)cc1C)C(=O)OC [Compound 11]	3 (herbicidal effect of not less than 50% by weight and less than 70% by weight)	4 (herbicidal effect of not less than 70% by weight and less than 90% by weight)	4 (herbicidal effect of not less than 70% by weight and less than 90% by weight)	4 (herbicidal effect of not less than 70% by weight and less than 90% by weight)	4 (herbicidal effect of not less than 70% by weight and less than 90% by weight)	3 (herbicidal effect of not less than 50% by weight and less than 70% by weight)	3 (herbicidal effect of not less than 50% by weight and less than 70% by weight)	3 (herbicidal effect of not less than 50% by weight and less than 70% by weight)	0 (herbicidal effect of not less than 0% by weight and less than 10% by weight)	0 (herbicidal effect of not less than 0% by weight and less than 10% by weight)	0 (herbicidal effect of not less than 0% by weight and less than 10% by weight)	4 (herbicidal effect of not less than 70% by weight and less than 90% by weight)	4 (herbicidal effect of not less than 70% by weight and less than 90% by weight)	4 (herbicidal effect of not less than 70% by weight and less than 90% by weight)	4 (herbicidal effect of not less than 70% by weight and less than 90% by weight)	0 (herbicidal effect of not less than 0% by weight and less than 10% by weight)	0 (herbicidal effect of not less than 0% by weight and less than 10% by weight)
